PMC10999543, “Identification of kinase modulators as host-directed therapeutics against intracellular methicillin-resistant Staphylococcus aureus” (Frontiers in Cellular and Infection Microbiology, 2024)
Where two headings read alike, the source gives them in different places.

Assays:
intracellular MRSA = format: cell-based, Staphylococcus aureus; settings: for z-scoreMRSA+ mean: mean of 3 replicates; for z-scoreMRSA+ rep 1 / %GFP+ rep 1: replicate 1; for z-scoreMRSA+ rep 2 / %GFP+ rep 2: replicate 2; for z-scoreMRSA+ rep 3 / %GFP+ rep 3: replicate 3
In short: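 HeLa cells infected with GFP-MRSA (MOI ~6.8), gentamicin-cleared, then incubated overnight at 37°C with inhibitors plus 5 µg/ml gentamicin; DMSO as negative control, triplicates. Flow cytometry gave % GFP-positive cells and cell count (viability surrogate); hits by plate z-score (MRSA ≤ -2, HeLa count ≥ -3).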

HeLa cells = assay: Compound screen by flow cytometry: HeLa cell count as surrogate readout of cell viability (z-scoreHeLa); format: cell-based, human; settings: for z-scoreHeLa mean: mean of 3 replicates; for z-scoreHeLa rep 1 / cell count rep 1: replicate 1; for z-scoreHeLa rep 2 / cell count rep 2: replicate 2; for z-scoreHeLa rep 3 / cell count rep 3: replicate 3
In short: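 HeLa cells were infected with GFP-MRSA (mean MOI 6.8 ± 4.6) for 1 h, and extracellular bacteria were killed with 30 µg/ml gentamicin. Cells were then incubated overnight with kinase inhibitors in 5 µg/ml gentamicin, in triplicate against DMSO controls. Flow-cytometric cell count served as a viability surrogate, expressed as a plate z-score.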

[1] = system: intracellular MRSA in MelJuSo cells; assay: Gentamicin protection assay with CFU count in MRSA-infected MelJuSo cells; format: cell-based, Staphylococcus aureus; settings: 10 µM, n=7
Protocol: The cells were resuspended in cell culture medium without antibiotics, seeded with 10,000 cells/well into Costar flat-bottom 96-well plates (Corning, Amsterdam, the Netherlands), and were incubated overnight at 37°C/5% CO2. The next day, the bacteria were centrifuged at ≥1800 g for 15 min and resuspended in cold PBS + 5 mM ethylenediaminetetraacetic acid (EDTA). The number of CFUs present in the bacterial suspension was estimated from the optical density at 600 nm (OD600) by assuming 8x10^8 CFUs to be present in a bacterial suspension with OD600 = 1, based on prior titrations. The bacterial suspension was diluted in cell culture medium without antibiotics and added to the cells. Accuracy of the multiplicity of infection (MOI) was validated by plating serial dilutions of the MRSA inoculums on Difco TS agar plates (BD Biosciences). The calculated mean MOI throughout all experiments was 6.8 ± 4.6 (mean ± SD). Infected cells were centrifuged for 3 min at 150 g and incubated for 1 hour at 37°C/5% CO2. Next, the cells were incubated with fresh cell culture medium supplemented with 30 µg/ml gentamicin sulphate (Lonza BioWhittaker, Basel, Switzerland) for 15 min at 37°C/5% CO2 to kill residual extracellular bacteria. Infected cells were incubated overnight at 37°C/5% CO2 in cell culture medium in the presence of kinase inhibitors and 5 µg/ml gentamicin sulphate-containing medium to prevent the growth of extracellular bacteria. The solvent of the compounds, DMSO, was used at equal % v/v as a negative control. For the screen, each compound was tested in triplicate, on separate cell culture plates, resulting in triplicate values for each kinase inhibitor.
Infected cells were lysed in sterile water + 0.05% UltraPure SDS solution (Invitrogen, ThermoFisher Scientific) to release intracellular bacteria. Bacterial suspensions and lysates of cells infected with MRSA were 5-fold serially diluted and 10-μl drops were plated on square TS agar plates. The plates were left to dry and incubated overnight at 37°C/5% CO2.

zebrafish embryos = assay: Zebrafish embryo toxicity test; format: in vivo; settings: for further signs of toxicity in zebrafish embryos: serial dilutions; for concentration well tolerated in zebrafish embryos: wild type AB/TL
Protocol: All experiments with zebrafish were done on embryos or larvae up to 5 days post fertilization, which have not yet reached the free-feeding stage and which were of the wild type AB/TL line. Fertilized embryos were maintained at 28°C and kept in egg water containing 60 μg/ml Instant Ocean Sea Salt (Sera, Heinsberg Germany). Zebrafish embryos were dechorionated with Dumont #5 forceps (Fine Science Tools Inc., Foster City, CA, USA) at 24 hours post fertilization (hpf) and transferred to 96-wells plates with each well containing a single embryo. Subsequently, the embryos were treated with kinase inhibitors or DMSO at 30 hpf. The health status of the embryos was assessed at 120 hpf. Healthy embryos were given a health score of 5. Health points were withdrawn for each of the following symptoms: no responsiveness to physical stimulation, cranial malformations, oedema or tail malformations. Dead embryos were given a health score of 0.

MRSA = format: in vivo, zebrafish; settings: for survival rate of MRSA-infected zebrafish embryos: 10 µM, after 4 days, 1000 CFUs MRSA, DMSO 57.5%, uninfected 93.8%
Protocol: Zebrafish embryos were dechorionated at 24 hpf. The OD600 of a log-phase MRSA culture was centrifuged and dissolved in PBS with 2% polyvinylpyrrolidone (Merck) to improve homogeneity of the bacterial suspension. The OD600 was measured and the bacterial suspension was diluted to a final concentration of 10^9 CFUs/ml accordingly. The preparation of injection needles and the equipment used for microinjections have been previously described ([Benard et al., 2012]). At 28 hpf, zebrafish embryos were anesthetized in 200 µg/ml buffered ethyl 3-aminobenzoic acid (Tricaine, Sigma-Aldrich) and injected in the blood island with a bacterial dose of 1 nl containing 1000 CFUs of MRSA. Infected embryos were collected and randomly distributed over 6-wells plates with ten embryos/well. At 30 hpf, the infected embryos were given kinase inhibitors or DMSO as negative control. Survival of the embryos was scored at 48, 72, 96 and 120 hpf.

[2] = PKIS compound screen, Yes/No call
[3] = PKIS compound screen, Yes/No call (effect without cell death)
[4] = PKIS compounds raw data, MRSA-infected HeLa cells
[5] = PKIS compounds raw data, HeLa cell count
[6] = compound screen, MRSA-infected HeLa cells
[7] = compound screen, HeLa cell count
[8] = PKIS compound screen raw data, MRSA-infected HeLa cells
[9] = PKIS compound screen, MRSA-infected HeLa cells
[10] = PKIS compound screen raw data, HeLa cell count
[11] = PKIS compound screen, HeLa cell count

O=S(=O)(CCNCc1ccc(-c2ccc3ncnc(Nc4ccc(OCc5cccc(F)c5)c(Cl)c4)c3c2)o1)c1ccccc1 [GW633459A]
effect (intracellular MRSA; [2]): Yes
hit (intracellular MRSA; [3]): Yes
z-scoreMRSA+ mean (intracellular MRSA; PKIS compound screen): -2.34
z-scoreMRSA+ rep 1 (intracellular MRSA; PKIS compound screen): -2.22
z-scoreMRSA+ rep 2 (intracellular MRSA; PKIS compound screen): -2.06
z-scoreMRSA+ rep 3 (intracellular MRSA; PKIS compound screen): -2.75
%GFP+ rep 1 (intracellular MRSA; [4]): 6.2%
%GFP+ rep 2 (intracellular MRSA; [4]): 7.3%
%GFP+ rep 3 (intracellular MRSA; [4]): 6.6%
cell death (HeLa cells; [2]): No
z-scoreHeLa mean (HeLa cells; PKIS compound screen): 0.80
z-scoreHeLa rep 1 (HeLa cells; PKIS compound screen): 0.28
z-scoreHeLa rep 2 (HeLa cells; PKIS compound screen): 0.72
z-scoreHeLa rep 3 (HeLa cells; PKIS compound screen): 1.40
cell count rep 1 (HeLa cells; [5]): 5085
cell count rep 2 (HeLa cells; [5]): 5223
cell count rep 3 (HeLa cells; [5]): 9893
reduction in bacterial burden (CFU) [1]: 81%
further signs of toxicity in zebrafish embryos (zebrafish embryos; 120 hpf): no further signs of toxicity were observed
concentration well tolerated in zebrafish embryos (zebrafish embryos; zebrafish, in vivo): ≤ 10 µM
survival rate of MRSA-infected zebrafish embryos (MRSA): 67.5%

COc1ccc2[nH]c3c4[nH]c5ccc(OC)cc5c4c4c(c3c2c1)C(=O)NC4=O [GW296115X]
z-scoreMRSA+ (z-score of GFP-positive cells) (intracellular MRSA; 10 µM, 24 h, HeLa cells infected with GFP-expressing MRSA): -3.82
MRSA-infected cells (mean ± SD) (intracellular MRSA; 10 µM, 24 h, HeLa cells, DMSO 14.6% ± 1.0%): 2.1% ± 0.26
%GFP+ rep 1 (intracellular MRSA; [4]): 2.3%
%GFP+ rep 2 (intracellular MRSA; [4]): 1.8%
%GFP+ rep 3 (intracellular MRSA; [4]): 2.2%
effect (intracellular MRSA; Yes/No call from z-scoreMRSA+): Yes
hit (intracellular MRSA; Yes/No: effect without cell death): Yes
z-scoreMRSA+ mean (intracellular MRSA; [6]): -3.82
z-scoreMRSA+ rep 1 (intracellular MRSA; [6]): -3.48
z-scoreMRSA+ rep 2 (intracellular MRSA; [6]): -3.91
z-scoreMRSA+ rep 3 (intracellular MRSA; [6]): -4.06
cell count rep 1 (HeLa cells; [5]): 4446
cell count rep 2 (HeLa cells; [5]): 4236
cell count rep 3 (HeLa cells; [5]): 6955
cell death (HeLa cells; Yes/No call from z-scoreHeLa): No
z-scoreHeLa mean (HeLa cells; [7]): -0.11
z-scoreHeLa rep 1 (HeLa cells; [7]): -0.30
z-scoreHeLa rep 2 (HeLa cells; [7]): -0.0242
z-scoreHeLa rep 3 (HeLa cells; [7]): -0.00316
reduction in bacterial burden (CFU) [1]: 88%
further signs of toxicity in zebrafish embryos (zebrafish embryos; 120 hpf): no further signs of toxicity were observed
concentration well tolerated in zebrafish embryos (zebrafish embryos; zebrafish, in vivo): ≤ 10 µM
survival rate of MRSA-infected zebrafish embryos (MRSA): 77.5%

CC(C)c1nc(-c2cccc(NS(=O)(=O)c3c(F)cccc3F)c2F)c(-c2ccnc(Nc3ccc(N4CCOCC4)nc3)n2)s1 [GSK2008607A]
%GFP+ rep 1 (intracellular MRSA; [8]): 8.4%
%GFP+ rep 2 (intracellular MRSA; [8]): 9.2%
%GFP+ rep 3 (intracellular MRSA; [8]): 10.2%
z-scoreMRSA+ mean (intracellular MRSA; [9]): -2.86
z-scoreMRSA+ rep 1 (intracellular MRSA; [9]): -2.77
z-scoreMRSA+ rep 2 (intracellular MRSA; [9]): -2.79
z-scoreMRSA+ rep 3 (intracellular MRSA; [9]): -3.01
effect (intracellular MRSA; [2]): No
hit (intracellular MRSA; [3]): No and Yes
effect (intracellular MRSA; PKIS compound screen, Yes/No call on z-scoreMRSA+): Yes
z-scoreMRSA+ mean (intracellular MRSA; PKIS compound screen): -0.97
z-scoreMRSA+ rep 1 (intracellular MRSA; PKIS compound screen): -1.10
z-scoreMRSA+ rep 2 (intracellular MRSA; PKIS compound screen): -1.14
z-scoreMRSA+ rep 3 (intracellular MRSA; PKIS compound screen): -0.66
%GFP+ rep 1 (intracellular MRSA; [4]): 21.4%
%GFP+ rep 2 (intracellular MRSA; [4]): 20.1%
%GFP+ rep 3 (intracellular MRSA; [4]): 23.7%
cell count rep 1 (HeLa cells; [10]): 21178
cell count rep 2 (HeLa cells; [10]): 14585
cell count rep 3 (HeLa cells; [10]): 12213
z-scoreHeLa mean (HeLa cells; [11]): -1.56
z-scoreHeLa rep 1 (HeLa cells; [11]): -1.53
z-scoreHeLa rep 2 (HeLa cells; [11]): -1.83
z-scoreHeLa rep 3 (HeLa cells; [11]): -1.31
cell death (HeLa cells; [2]): No
cell death (HeLa cells; PKIS compound screen, Yes/No call on z-scoreHeLa): No
z-scoreHeLa mean (HeLa cells; PKIS compound screen): -1.34
z-scoreHeLa rep 1 (HeLa cells; PKIS compound screen): -1.52
z-scoreHeLa rep 2 (HeLa cells; PKIS compound screen): -1.39
z-scoreHeLa rep 3 (HeLa cells; PKIS compound screen): -1.10
cell count rep 1 (HeLa cells; [5]): 3519
cell count rep 2 (HeLa cells; [5]): 3908
cell count rep 3 (HeLa cells; [5]): 3860
reduction in bacterial burden (CFU) [1]: 81%
embryos that died, of 15 (zebrafish embryos; 1 µM, 120 hpf): one
symptoms of surviving zebrafish embryos (zebrafish embryos; 3 and 10 µM, 120 hpf): oedema of the heart sac and yolk, as well as unresponsiveness to physical stimulation
zebrafish embryo mortality (zebrafish embryos; 3 and 10 µM, treated 30 hpf, scored 120 hpf): caused zebrafish embryo mortality
concentrations exhibiting toxicity in zebrafish embryos (zebrafish embryos; zebrafish, in vivo): ≥ 1 µM
embryos that did not respond to physical stimulation, of 15 (zebrafish embryos; zebrafish, in vivo): another
embryos with cranial malformations, of 15 (zebrafish embryos; zebrafish, in vivo): two
embryos with oedema, of 15 (zebrafish embryos; zebrafish, in vivo): three
toxicity in MRSA-infected zebrafish embryos (MRSA; 1 µM): severe compound-related toxicity
